Data from US8828992B2, “Substituted azole derivatives, pharmaceutical composition containing the derivatives, and method for treating Parkinson's disease using the same” (priority 2009, dated 2014).
Where two headings read alike, the source gives them in different places.

Columns and labels:
[1] = molecular target: T1, Monoamineoxidase B type human-derived enzyme (Homo sapiens, UniProt P27338); experiment: Inhibitory effects on the activity of MAO-B (Amplex Red fluorescence, benzylamine substrate); type: biochemical; conditions: read-out: Inhibitory effects (%) on the activity of MAO-B
T1 sequence (P27338 1-520): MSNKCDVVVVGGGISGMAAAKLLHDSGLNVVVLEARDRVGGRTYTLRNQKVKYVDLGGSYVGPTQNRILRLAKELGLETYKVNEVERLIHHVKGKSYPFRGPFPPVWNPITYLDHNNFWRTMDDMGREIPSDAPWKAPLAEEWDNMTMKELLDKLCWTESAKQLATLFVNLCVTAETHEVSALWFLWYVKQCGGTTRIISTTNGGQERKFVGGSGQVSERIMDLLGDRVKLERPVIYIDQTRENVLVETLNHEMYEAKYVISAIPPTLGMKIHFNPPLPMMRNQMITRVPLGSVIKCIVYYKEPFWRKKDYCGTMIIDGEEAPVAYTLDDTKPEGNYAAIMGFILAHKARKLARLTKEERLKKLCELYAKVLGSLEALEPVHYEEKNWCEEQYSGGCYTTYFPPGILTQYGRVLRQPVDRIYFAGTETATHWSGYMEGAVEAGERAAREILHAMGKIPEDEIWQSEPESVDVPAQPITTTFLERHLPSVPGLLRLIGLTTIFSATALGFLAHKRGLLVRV
Outline: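 Human MAO-B, diluted 1:200 in 0.05 M sodium phosphate pH 7.4, was pre-incubated with compound for 30 min. It was then mixed 1:1 with working buffer holding 400 μM Amplex Red, 2 U/ml HRP and 2 mM benzylamine (working-buffer levels). Fluorescence (Ex 563/Em 587 nm) was read over 30 min.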

MPTP-induced mouse model = experiment: Tail suspension test in MPTP-induced mouse model of Parkinson's disease; type: in vivo; conditions: Mus musculus, 168 h; administration concentration 10 (10 mg/kg), oral, 7 days after MPTP; % of control group (Sham); read-out: Mobility (%)
Protocol: (§1) A. MPTP (1-methyl-4-phenyl-1,2,3,6-tetrahydropyridine) and drug treatment MPTP (20 mg/kg, free base; Sigma, St. louis, Mo.) was administered to an 8 week old (20-25 g) male C57BL/6 test mouse intraperitoneally three times a day at the interval of 2 hours to construct a model (Breidert et al., 2002; Lichuan Yang, Shuei Sugama, Jason W. Chirichigno, Jason Gregorio, Stefan Lorenzl, Dong H. Shin, Susan E. Browne, Yoshinori Shimizu, Tong H. Joh, M. Flint Beal, l and David S. Alber. (2003) Minocycline Enhances MPTP Toxicity to Dopaminergic Neurons. J Neurosci Res. 74:278-285). In order to observe the protective effects of the compound as a candidate drug, the compound was dissolved in a solution containing 10% dimethylsulfoxide (DMSO), 10% Cremophor, and 40% polyethyleneglycol (PEG), […] treatment. Rasagiline as a control drug was also dissolved in the same solution, and the resulting solution was administered at the same doses in the same manner as above. A control group (Sham) in which MPTP was not administered was constructed by intraperitoneally administering saline solution to the group instead of MPTP in the same manner as above and orally administering the same solution 1 hour before and after PBS treatment.
A tail suspension test was performed in order to measure the induction degree of behavioral dysfunctions in accordance with administration of MPTP and a drug. At 7 days after administration of the drug, a round stainless steel rod (width: 1 cm) was affixed to a cage (width: 16 cm, height: 40 cm) 35 cm above from the surface shielded by black wooden structures in the left and right sides to perform experiments. The time for which the animal moved for a total period of 6 minutes was measured in seconds to evaluate the drug action.
Mobility refers to an expression of the measurement of the time for which the animal moved with its tail hung high as a percentage compared to the measurement of a control group.

[2] = test system: dopamine (DA) in the striata of MPTP-treated mice; experiment: Levels of dopamine in the striata of MPTP-treated mice (HPLC); type: in vivo; conditions: Mus musculus, po, 168 h, 10 mpk, 7 days after MPTP, read-out: Levels of dopamine (DA) in the striata, compared to a control group %
Protocol: as §1
The changes of contents of dopamine and dopamine metabolites in the striatum in accordance with administrations of MPTP and the drug were measured by high performance liquid chromatography (HPLC). At 7 days after administration of the drug, the animal was sacrificed by cervical vertebra dislocation and the brain tissues were immediately isolated from the animal. 0.5 ml of iced solution for HPLC analysis (0.1 M perchloric acid and 0.1 mM EDTA) was added to a striatum obtained from the isolated brain tissues, and an ultrasonic grinder was used to prepare a tissue homogenate. The tissue homogenate was centrifuged at 12,000 rpm for 15 minutes, and its supernatant was filtered through nitrocellulose membrane filter (0.2 um, Millipore). For HPLC analysis, uBondapak™ C18 column (4.6×150 mm, particle size 10 μm: Shisheido, Japan) was used, the flow rate of the mobile phase (0.07 M monobasic sodium phosphate), 1 mM sodium octasulfonic acid, 0.1 uM EDTA, 5% acetonitrile, pH 3.2) was maintained at 0.7 ml/min, and the electrode potential of the electrochemical detector (ICA-5000, Japan) was set at 700 mV.

[3] = test system: dopamine (DA) in the striatum of a MPTP-treated mouse; experiment: Combined administration with Levodopa group: dopamine in the striatum of MPTP-treated mouse (HPLC); type: in vivo; conditions: compound 1 mg/kg PO co-administered with Levodopa group (Levodopa 50 mg/kg + Benzerazide 25 mg/kg IP); for Concentration of dopamine compared to a control group %, 1 hr: 1 hr after Levodopa; for Concentration of dopamine compared to a control group %, 3 hr: 3 hr after Levodopa
Protocol: MPTP (20 mg/kg, free base; Sigma, St. louis, Mo.) was administered to an 8 week old (20-25 g) male C57BL/6 test mouse intraperitoneally at the interval of 2 hours to construct a model.
In order to observe the effects of combined administration of a compound of the present invention and Levodopa, the compound of the present invention was dissolved in a solution containing 0.02 ml of dimethylsulfoxide (DMSO), 0.02 ml of Cremophor, 0.08 ml of polyethyleneglycol (PEG), and 0.08 ml of physiological saline. The resulting solution was orally administered at doses of 1 mg/kg one week after the MPTP treatment, and a Levodopa group containing Levodopa at 50 mg/kg and Benzerazide at 25 mg/kg was intraperitoneally administered 1 hour later.
A single administration of the Levodopa group in the following Table 4 indicates values resulting from a MPTP (toxin) treatment followed by an administration of the Levodopa group compared to the treatment results of a Levodopa single administration group of Levodopa and Benzerazide.
At 1 hour and 3 hours after administration of Levodopa, the animals were sacrificed by cervical vertebra dislocation and the brain tissues were immediately isolated from the animals. 0.5 me of iced solution for HPLC analysis (0.1 M perchloric acid and 0.1 mM EDTA) was added to a striatum obtained from the isolated brain tissues, and an ultrasonic grinder was used to prepare a tissue homogenate. The tissue homogenate was centrifuged at 12,000 rpm for 15 minutes, and its supernatant was filtered through nitrocellulose membrane filter (0.2 um, Millipore). For HPLC analysis, uBondapak™ C18 column (4.6×150 mm, particle size 10 μm: Shisheido, Japan) was used, the flow rate of the mobile phase (0.07 M monobasic sodium phosphate, 1 mM sodium octasulfonic acid, 0.1 uM EDTA, 5% acetonitrile, pH 3.2) was maintained at 0.5 me/min, and the electrode potential of the electrochemical detector (CouloChem III, ESA, Japan) was set at 350 mV.

SMILES	inhibition at 0.01 µM [1]	response vs control in vivo at 10 mg/kg (MPTP-induced mouse model)	response vs control in vivo at 10 mg/kg [2]	Concentration of dopamine compared to a control group %, 1 hr [3]	Concentration of dopamine compared to a control group %, 3 hr [3]	inhibition at 0.01 µM ([1]; treatment concentration 10 nM)
NC(=O)OCc1cc(-c2ccc(OCc3ccccc3)cc2)no1 [Example 1, carbamic acid 3-(4-benzyloxy-phenyl)-isoxazole-5-ylmethyl ester]	96.6%	113%	112%	129.5%	90.8%	
NC(=O)OCc1cc(-c2ccc(OCc3ccccc3)c(Br)c2)no1 [Example 6, carbamic acid 3-(4-benzyloxy-3-bromo-phenyl)-isoxazol-5-ylmethyl ester]		82.9%	112%	220.87%	59.8%	90.7%
NC(=O)OCc1cc(-c2ccc(OCc3cccc(F)c3)cc2)no1 [Example 12, carbamic acid 3-[4-(3-fluoro-benzyloxy)-phenyl]-isoxazol-5-ylmethyl ester]		85.3%	78.8%			94.1%
NC(=O)OCc1cc(-c2ccc(OCc3ccc(C=NO)cc3)cc2)no1 [Example 37, carbamic acid 3-{4-[4-(hydroxyimino-methyl)-benzyloxy]-phenyl}-isoxazol-5-ylmethyl ester]		77.5%	79.2%			92.3%
NC(=O)OCc1cc(-c2ccc(OCc3cccc(C=NO)c3)cc2)no1 [Example 38, carbamic acid 3-{4-[3-(hydroxyimino-methyl)-benzyloxy]-phenyl}-isoxazol-5-ylmethyl ester]		73%	52.9%			91.7%
CCCCCCOc1ccc(-c2cc(COC(N)=O)on2)cc1 [Example 45, carbamic acid 3-(4-hexyloxy-phenyl)-isoxazol-5-ylmethyl ester]	87.6%	114%	41.1%			
NC(=O)OCc1cc(-c2ccc(OCc3ccc(Cl)s3)cc2)no1 [Example 62, Carbamic acid 3-[4-(5-chloro-thiophen-2-ylmethoxy)-phenyl]-isoxazol-5-ylmethyl ester]	98.6%	97.3%	99.1%	204.8%	65.4%	
NC(=O)OCc1cc(-c2ccc(OCc3ccccn3)cc2)no1 [Example 65, Carbamic acid 3-[4-(pyridin-2-ylmethoxy)-phenyl]-isoxazol-5-ylmethyl ester]	89.9%	94.1%	74.9%			
NC(=O)OCc1cc(-c2ccc(OCc3ccncc3)cc2)no1 [Example 67, Carbamic acid 3-[4-(pyridin-4-ylmethoxy)-phenyl]-isoxazol-5-ylmethyl ester]	94.2%	88.9%	80.7%			
NC(=O)OCc1cc(-c2ccc(OCc3c(Cl)cncc3Cl)cc2)no1 [Example 69, Carbamic acid 3-[4-(3,5-dichloro-pyridin-4-ylmethoxy)-phenyl]-isoxazol-5-ylmethyl ester]		97.4%	100%	205.2%	200.4%	83.6%
NC(=O)OCc1cc(-c2ccc(OCn3nnc4ccccc43)cc2)no1 [Example 71, Carbamic acid 3-[4-(benzotriazol-1-ylmethoxy)-phenyl]-isoxazol-5-ylmethyl ester]			41.1%			56%
CNC(=O)OCc1cc(-c2ccc(OCc3ccccc3)cc2)no1 [Example 121, methyl-carbamic acid 3-(4-benzyloxy-phenyl)-isoxazol-5-ylmethyl ester]		91.2%	97.9%	144.6%	89.2%	82.8%
Cc1cn(Cc2cc(-c3ccc(OCc4ccccc4)cc3)no2)cn1 [Example 141, 3-(4-benzyloxy-phenyl)-5-(4-methyl-imidazol-1-ylmethyl)-isoxazole]		94.6%	51.2%			92.2%
Fc1cccc(F)c1COc1ccc(-c2cc(Cn3ccnc3)on2)cc1 [Example 143, 3-[4-(2,6-difluoro-benzyloxy)-phenyl]-5-imidazol-1-ylmethyl-isoxazole]		98.9%	46.1%			98.1%
